What was measured:
Format in all cases: cell-based
T-47D = experiment: NCI screen, growth of human tumor cells: Breast Cancer T-47D; settings: 10^−4 molar; for percent of growth of human tumor cells: T-47D (Breast Cancer)
Method: (§1) In the NCI screening process, each compound was tested and described by a minimum of 60 data points. The test data include, but are not limited to the type of cancer, the molar concentration used in the screen, and the percent growth of the cancer. In some cases, NMR and elemental analysis were used for structural assignment.

CCRF-CEM = experiment: NCI screen, growth of human tumor cells: Leukemia CCRF-CEM; settings: for % Growth: CCRF-CEM
Procedure, shortened: (§2)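 NCI screening: compound applied to tumor cell lines at a given molar concentration, growth measured as percent. Minimum 60 data points/compound; cancer type noted.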

MALME-3M = experiment: NCI screen, growth of human tumor cells: Melanoma MALME-3M; settings: for % Growth: MALME-3M
Procedure, shortened: as §2

786-0 = experiment: NCI screen, growth of human tumor cells: Renal Cancer 786-0
Procedure, shortened: as §2

HS 578T = experiment: NCI screen, growth of human tumor cells: Breast Cancer HS 578T; settings: HS 578T (Breast Cancer), 10^−4 molar
Procedure, shortened: as §2

HOP-62 = experiment: NCI screen, growth of human tumor cells: Non-Small Cell Lung HOP-62
Procedure, shortened: as §2

SK-OV-3 = experiment: NCI screen, growth of human tumor cells: Ovarian Cancer SK-OV-3; settings: SK-OV-3, 10^−4 molar
Procedure, shortened: as §2

NCI-H522 = experiment: NCI screen, growth of human tumor cells: Non-Small Cell Lung NCI-H522
Procedure, shortened: as §2

HCC-2998 = experiment: NCI screen, growth of human tumor cells: HCC-2998 (listed under Non-Small Cell Lung)
Procedure, shortened: as §2

human cancer cells = experiment: NCI screen summary over the cancers tested (negative growth of human cancer cells); settings: for Percentage of cancers showing negative growth cancers tested: cancers with negative growth / cancers tested
Method: as §1
The derivatives in the tables are grouped using the same category as in the tables 1-6.

RXF-393 = experiment: NCI screen, growth of human tumor cells: Renal Cancer RXF-393
Procedure, shortened: as §2

SF-539 = experiment: NCI screen, growth of human tumor cells: CNS Cancer SF-539
Procedure, shortened: as §2

UO-31 = experiment: NCI screen, growth of human tumor cells: Renal Cancer UO-31; settings: UO-31, 10^−4 molar
Procedure, shortened: as §2

HOP-92 = experiment: NCI screen, growth of human tumor cells: Non-Small Cell Lung HOP-92
Procedure, shortened: as §2

HCT-15 = experiment: NCI screen, growth of human tumor cells: Colon Cancer HCT-15; settings: for percent of growth of human tumor cells: HCT-15 (Colon Cancer), 10^−4 molar
Procedure, shortened: as §2

HL-60 (TB) = experiment: NCI screen, growth of human tumor cells: Leukemia HL-60 (TB); settings: for % Growth: HL-60(TB)
Method: as §1

MOLT-4 = experiment: NCI screen, growth of human tumor cells: Leukemia MOLT-4; settings: for percent of growth of human tumor cells: MOLT-4 (Leukemia), 10^−4 molar
Procedure, shortened: as §2

SW620 = experiment: NCI screen, growth of human tumor cells: Colon Cancer SW620
Procedure, shortened: as §2

IGROVI = experiment: NCI screen, growth of human tumor cells: Ovarian Cancer IGROVI; settings: IGROVI
Procedure, shortened: as §2

NCI-H23 = experiment: NCI screen, growth of human tumor cells: Non-Small Cell Lung NCI-H23
Procedure, shortened: as §2

M14 = experiment: NCI screen, growth of human tumor cells: Melanoma M14; settings: M14, 10^−4 molar
Procedure, shortened: as §2

AS49/ATCC = experiment: NCI screen, growth of human tumor cells: Non-Small Cell Lung AS49/ATCC; settings: A549/ATCC, 10^−4 molar
Procedure, shortened: as §2

KD488 = experiment: NCI screen, growth of human tumor cells: Lymphoma KD488
PA682 = experiment: NCI screen, growth of human tumor cells: Lymphoma PA682
SU-DAL-7 = experiment: NCI screen, growth of human tumor cells: Lymphoma SU-DAL-7
AS283 = experiment: NCI screen, growth of human tumor cells: Lymphoma AS283
RL = experiment: NCI screen, growth of human tumor cells: Lymphoma RL
MDA-N = experiment: NCI screen, growth of human tumor cells: Breast Cancer MDA-N; settings: 10^−4 molar
Method: as §1

CC1(C)OCC(COC(=O)C(=O)C2(Cc3ccc4c(c3)C(=O)c3ccccc3C4=O)S(=O)(=O)OCCOS2(=O)=O)O1 (stereo not shown) [NSC 737276]
percent of growth of human tumor cells (T-47D): −39% | percent of growth of human tumor cells (CCRF-CEM; CCRF-CEM (Leukemia), 10^−4 molar): −38% | percent of growth of human tumor cells (MALME-3M; MALME-3M (Melanoma), 10^−4 molar): −50% | % Growth (786-0; 786-0, 10^−4 molar): −74% | percent of growth of human tumor cells (HS 578T): 17% | % Growth (HOP-62; HOP-62, 10^−4 molar): −84% | % Growth (SK-OV-3): −67% | % Growth (NCI-H522; NCI-H522, 10^−4 molar): −91% | % Growth (HCC-2998; HCC-2998, 10^−4 molar): −96% | Percentage of cancers showing negative growth cancers tested (human cancer cells; 10^−4 M conc.): 10^−4 M conc. = 49/55 = 89% | percent of growth of human tumor cells (RXF-393; RXF-393 (Renal Cancer), 10^−4 molar): −54% | percent of growth of human tumor cells (SF-539; SF-539 (CNS Cancer), 10^−4 molar): −43% | % Growth (UO-31): −81% | percent of growth of human tumor cells (HOP-92; HOP-92 (Non-Small Cell Lung), 10^−4 molar): −47% | percent of growth of human tumor cells (HCT-15): −12% | percent of growth of human tumor cells (HL-60 (TB); HL-60 (TB) (Leukemia), 10^−4 molar): −3% | percent of growth of human tumor cells (MOLT-4): −26% | % Growth (SW620; SW620, 10^−4 molar): −74% | % Growth (IGROVI; 10^−4 molar): −70% | % Growth (NCI-H23; NCI-H23, 10^−4 molar): −75%

CC(=O)C1(CC2=C(C)C(=O)c3ccccc3C2=O)S(=O)(=O)OCCOS1(=O)=O [NSC 701690]
percent of growth of human tumor cells (T-47D): −54% | % Growth (T-47D; T-47D): −54% | % Growth (CCRF-CEM; 10^−4 molar): −73% | % Growth (CCRF-CEM; 10^−5 molar): 55% | % Growth (MALME-3M; 10^−4 molar): −100% | % Growth (MALME-3M; 10^−5 molar): 38% | % Growth (MALME-3M; 10^−6 molar): 43% | % Growth (786-0; 786-0, 10^−4 molar): −100% | % Growth (786-0; 786-0, 10^−5 molar): 36% | % Growth (HOP-62; HOP-62, 10^−4 molar): −92% | % Growth (HOP-62; HOP-62, 10^−5 molar): 52% | % Growth (NCI-H522; NCI-H522, 10^−4 molar): −100% | % Growth (NCI-H522; NCI-H522, 10^−5 molar): 35% | % Growth (NCI-H522; NCI-H522, 10^−6 molar): 57% | % Growth (NCI-H522; NCI-H522, 10^−7 molar): 77% | % Growth (NCI-H522; NCI-H522, 10^−8 molar): 67% | % Growth (HCC-2998; HCC-2998, 10^−4 molar): −100% | Percentage of cancers showing negative growth cancers tested (human cancer cells; 10^−4 M conc.): 100% | Percentage of cancers showing negative growth cancers tested (human cancer cells; 10^−5 M conc.): 5% | Percentage of cancers showing negative growth cancers tested (human cancer cells; 10^−6 M conc.): 14% | % Growth (RXF-393; RXF-393, 10^−4 molar): −69% | % Growth (M14): −100% | % Growth (SF-539; SF-539, 10^−4 molar): −100% | % Growth (SF-539; SF-539, 10^−5 molar): 44% | % Growth (AS49/ATCC): −97% | % Growth (UO-31): −92% | % Growth (HOP-92; HOP-92, 10^−4 molar): −66% | % Growth (HOP-92; HOP-92, 10^−5 molar): 23% | % Growth (HOP-92; HOP-92, 10^−6 molar): 60% | % Growth (HCT-15; HCT-15, 10^−4 molar): −100% | % Growth (SW620; SW620, 10^−4 molar): −100% | % Growth (SW620; SW620, 10^−5 molar): 23% | % Growth (SW620; SW620, 10^−6 molar): 54% | % Growth (IGROVI; 10^−4 molar): −100% | % Growth (IGROVI; 10^−5 molar): 40% | % Growth (IGROVI; 10^−6 molar): 60% | % Growth (NCI-H23; NCI-H23, 10^−4 molar): −91%

Cc1ccc2ccccc2c1CC1S(=O)(=O)OCCOS1(=O)=O [NSC 679043, ethylene 2-methyl-1-naphyl-1,1-ethanedisulfonate]
% Growth (CCRF-CEM; 10^−4 molar): −49% | % Growth (CCRF-CEM; 10^−5 molar): 37% | % Growth (MALME-3M; 10^−4 molar): −88% | % Growth (KD488; KD488, 10^−4 molar): −45% | % Growth (KD488; KD488, 10^−5 molar): 30% | % Growth (KD488; KD488, 10^−6 molar): 62% | % Growth (KD488; KD488, 10^−7 molar): 54% | % Growth (PA682; PA682, 10^−4 molar): −33% | % Growth (PA682; PA682, 10^−5 molar): 45% | % Growth (786-0; 786-0, 10^−4 molar): −97% | % Growth (HOP-62; HOP-62, 10^−4 molar): −77% | % Growth (SU-DAL-7; SU-DAL-7, 10^−4 molar): −44% | % Growth (SU-DAL-7; SU-DAL-7, 10^−5 molar): 14% | % Growth (HCC-2998; HCC-2998, 10^−4 molar): −88% | % Growth (HCC-2998; HCC-2998, 10^−5 molar): 22% | percentage of cancers that had −100% growth (human cancer cells; 10^−4 M conc.): 8% | Percentage of cancers showing negative growth cancers tested (human cancer cells; 10^−4 M conc.): 100% | Percentage of cancers showing negative growth cancers tested (human cancer cells; 10^−5 M conc.): 9% | % Growth (M14): −78% | % Growth (AS49/ATCC): −77% | % Growth (UO-31): −100% | percent of growth of human tumor cells (HCT-15): −49% | % Growth (HL-60 (TB); 10^−4 molar): −49% | % Growth (HL-60 (TB); 10^−5 molar): −33% | % Growth (MOLT-4; MOLT-4, 10^−4 molar): −46% | % Growth (MOLT-4; MOLT-4, 10^−5 molar): 36% | % Growth (AS283; AS283, 10^−4 molar): −34% | % Growth (AS283; AS283, 10^−5 molar): 37% | % Growth (RL; 10^−4 molar): −45% | % Growth (RL; 10^−5 molar): 33% | % Growth (NCI-H23; NCI-H23, 10^−4 molar): −48% | % Growth (NCI-H23; NCI-H23, 10^−5 molar): 75%

CC1=C(CC2S(=O)(=O)OCCOS2(=O)=O)C(=O)c2ccccc2C1=O [NSC 693874, ethylene (3-methyl-1,4-naphtho-2-quinoyl)-1,1-ethanedisulfonate]
% Growth (CCRF-CEM; 10^−4 molar): −49% | % Growth (CCRF-CEM; 10^−5 molar): 28% | % Growth (MALME-3M; 10^−4 molar): −78% | percent of growth of human tumor cells (786-0; 786-0 (Renal Cancer), 10^−4 molar): −16% | percent of growth of human tumor cells (HS 578T): −21% | % Growth (HOP-62; HOP-62, 10^−4 molar): −94% | % Growth (SK-OV-3): −75% | % Growth (NCI-H522; NCI-H522, 10^−4 molar): −69% | % Growth (HCC-2998; HCC-2998, 10^−4 molar): −100% | % Growth (HCC-2998; HCC-2998, 10^−5 molar): 50% | Percentage of cancers showing negative growth cancers tested (human cancer cells; 10^−4 M conc.): 98% | Percentage of cancers showing negative growth cancers tested (human cancer cells; 10^−5 M conc.): 12% | % Growth (SF-539; SF-539, 10^−4 molar): −100% | % Growth (SF-539; SF-539, 10^−5 molar): 51% | % Growth (AS49/ATCC): −93% | % Growth (UO-31): −97% | % Growth (HOP-92; HOP-92, 10^−4 molar): −88% | percent of growth of human tumor cells (MOLT-4): −51% | percent of growth of human tumor cells (MDA-N): −59% | % Growth (IGROVI; 10^−4 molar): −100% | % Growth (IGROVI; 10^−5 molar): 52% | % Growth (NCI-H23; NCI-H23, 10^−4 molar): −89% | % Growth (NCI-H23; NCI-H23, 10^−5 molar): 62%
